Like-named read-outs stand apart in the source and are kept apart here.
Assays:
KRAS G12D = KRAS G12D (Homo sapiens, UniProt P01116, G12D); experiment: KRAS G12D Probe Displacement Assay (TR-FRET, GDP-loaded); type: binding
Text: (§1) The synthetic routes of probe 1 and 2, which have been disclosed in PCT/CN2022/070676, are hereby incorporated herein.

WT KRAS = WT KRAS (Homo sapiens, UniProt P01116); experiment: KRAS WT Probe Displacement Assay (TR-FRET, GDP-loaded); type: binding
Text: as §1

[1] = KRAS G12D, read-out: KRAS^G12D Probe Displacement Assay IC50
[2] = KRAS WT, read-out: KRAS^WT Probe Displacement Assay IC50

WT KRAS, sequence (P01116 1-188 isoform P01116-2): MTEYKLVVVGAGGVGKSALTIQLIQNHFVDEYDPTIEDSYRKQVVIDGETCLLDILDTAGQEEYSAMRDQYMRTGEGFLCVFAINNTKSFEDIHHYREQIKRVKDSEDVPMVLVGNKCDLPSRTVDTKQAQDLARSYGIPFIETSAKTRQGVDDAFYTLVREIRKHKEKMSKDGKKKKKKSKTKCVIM
KRAS G12D, sequence (P01116 1-188 isoform P01116-2 G12D): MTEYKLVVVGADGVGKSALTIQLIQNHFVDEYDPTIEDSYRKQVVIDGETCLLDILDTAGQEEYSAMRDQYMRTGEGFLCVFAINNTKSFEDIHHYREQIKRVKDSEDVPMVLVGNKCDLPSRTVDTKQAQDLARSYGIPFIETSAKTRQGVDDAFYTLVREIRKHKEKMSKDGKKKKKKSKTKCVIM

SMILES	IC50 (KRAS G12D; [1])	IC50 (WT KRAS; [2])	IC50 (KRAS G12D; KRAS^G12D Probe Displacement Assay IC50, KRAS G12D)	IC50 (WT KRAS; KRAS^WT Probe Displacement Assay IC50, KRAS WT)
Cc1cc(N)cc(-c2nc3c4c(nc(OCC5(CN6CC=C[C@H]6C)CC5)nc4c2F)N2C[C@H]4CC[C@H](N4)[C@H]2CCO3)c1C(F)(F)F [Example 160, 3-((6aR,7S,10R)-1-fluoro-13-((1-(((R)-2-methyl-2,5-dihydro-1H-pyrrol-1-yl)methyl)cyclopropyl)methoxy)-5,6,6a,7,8,9,10,11-octahydro-4-oxa-3,11a,12,14,15-pentaaza-7,10-methanocyclohepta[4,5]cycloocta[1,2,3-de]naphthalen-2-yl)-5-methyl-4-(trifluoromethyl)aniline]	< 0.3 nM	3 to 1000 nM	–	–
C=CCN1CCC[C@H]1[C@H](C)Oc1nc2c3c(nc(-c4cc(N)cc(C)c4C(F)(F)F)c(F)c3n1)OCC[C@@H]1[C@@H]3CC[C@H](CN21)N3 [Example 231, 3-((6aR,7S,10R)-13-((S)-1-((S)-1-allylpyrrolidin-2-yl)ethoxy)-1-fluoro-5,6,6a,7,8,9,10,11-octahydro-4-oxa-3,11a,12,14,15-pentaaza-7,10-methanocyclohepta[4,5]cycloocta[1,2,3-de]naphthalen-2-yl)-5-methyl-4-(trifluoromethyl)aniline]	< 0.3 nM	3 to 1000 nM	–	–
Cc1cc(N)cc(-c2nc3c4c(nc(OCC5(F)COCC5N(C)C)nc4c2F)N2C[C@H]4CC[C@H](N4)[C@H]2CCO3)c1C(F)(F)F (stereo partly drawn) [Example 132, 4-((((6aR,7S,10R)-2-(5-amino-3-methyl-2-(trifluoromethyl)phenyl)-1-fluoro-5,6,6a,7,8,9,10,11-octahydro-4-oxa-3,11a,12,14,15-pentaaza-7,10-methanocyclohepta[4,5]cycloocta [1,2,3-de]naphthalen-13-yl)oxy)methyl)-4-fluoro-N,N-dimethyltetrahydrofuran-3-amine]	0.3 to 3 nM	3 to 1000 nM	–	–
[2H]C([2H])([2H])N1CC/C(=C\F)C(C)(C([2H])([2H])Oc2nc3c4c(nc(-c5cc(N)cc(C)c5C(F)(F)F)c(F)c4n2)OCC[C@@H]2[C@@H]4CC[C@H](CN32)N4)C1 (single isomer, unassigned) [Example 242]	< 0.3 nM	3 to 1000 nM	–	–
Cc1cc(N)cc(-c2nc3c4c(nc(OCC5(CN6CC(O)(C(F)(F)F)C6)CC5)nc4c2F)N2C[C@H]4CC[C@H](N4)[C@H]2CCO3)c1C(F)(F)F [Example 80, 1-((1-((((6aR,7S,10R)-2-(5-amino-3-methyl-2-(trifluoromethyl)phenyl)-1-fluoro-5,6,6a,7,8,9,10,11-octahydro-4-oxa-3,11a,12,14,15-pentaaza-7,10-methanocyclohepta[4,5]cycloocta [1,2,3-de]naphthalen-13-yl)oxy)methyl)cyclopropyl)methyl)-3-(trifluoromethyl) azetidin-3-ol]	< 0.3 nM	3 to 1000 nM	–	–
Nc1cc(Cl)c(C(F)(F)F)c(-c2nc3c4c(nc(OC[C@@]56C[C@@H](F)CN5CC5(CC5)C6)nc4c2F)N2C[C@H]4CC[C@H](N4)[C@H]2CCO3)c1 [Example 207, 3-chloro-5-((6aR,7S,10R)-1-fluoro-13-(((6′R,7a′R)-6′-fluorodihydro-1′H,3′H-spiro[cyclopropane-1,2′-pyrrolizin]-7a′(5′H)-yl)methoxy)-5,6,6a,7,8,9,10,11-octahydro-4-oxa-3,11a,12,14,15-pentaaza[7,10]methanocyclohepta[4,5]cycloocta[1,2,3-de]naphthalen-2-yl)-4-(trifluoromethyl)aniline]	< 0.3 nM	0.3 to 3 nM	–	–
CN(C)C1(C)CN(c2nc3c4c(nc(-c5cc(N)cc(Cl)c5C(F)(F)F)c(F)c4n2)OCC[C@@H]2[C@@H]4CC[C@H](CN32)N4)C1 [Example 31, 1-((6aR,7S,10R)-2-(5-amino-3-chloro-2-(trifluoromethyl)phenyl)-1-fluoro-5,6,6a,7,8,9,10,11-octahydro-4-oxa-3,11a,12,14,15-pentaaza-7,10-methanocyclohepta[4,5]cycloocta [1,2,3-de]naphthalen-13-yl)-N,N,3-trimethylazetidin-3-amine]	0.3 to 3 nM	3 to 1000 nM	–	–
Cc1cc(N)cc(-c2nc3c4c(nc(OCC5(CN6C[C@H]7COC[C@H]7C6)CC5)nc4c2F)N2C[C@H]4CC[C@H](N4)[C@H]2CCO3)c1C(F)(F)F [Example 100, 3-((6aR,7S,10R)-1-fluoro-13-((1-(((3aR,6aS)-tetrahydro-1H-furo[3,4-c]pyrrol-5(3H)-yl)methyl)cyclopropyl)methoxy)-5,6,6a,7,8,9,10,11-octahydro-4-oxa-3,11a,12,14,15-pentaaza-7,10-methanocyclohepta [4,5]cycloocta [1,2,3-de]naphthalen-2-yl)-5-methyl-4-(trifluoromethyl) aniline]	–	–	< 0.3 nM	0.3 to 3 nM
Cc1cc(N)cc(-c2nc3c4c(nc(OCC5(CN6CC=CC6C6(O)CC6)CC5)nc4c2F)N2C[C@H]4CC[C@H](N4)[C@H]2CCO3)c1C(F)(F)F (stereo partly drawn) [Example 162, 1-(1-((1-((((6aR,7S,10R)-2-(5-amino-3-methyl-2-(trifluoromethyl)phenyl)-1-fluoro-5,6,6a,7,8,9,10,11-octahydro-4-oxa-3,11a,12,14,15-pentaaza-7,10-methanocyclohepta[4,5]cycloocta[1,2,3-de]naphthalen-13-yl)oxy)methyl)cyclopropyl)methyl)-2,5-dihydro-1H-pyrrol-2-yl)cyclopropan-1-ol]	< 0.3 nM	3 to 1000 nM	–	–
Cc1cc(N)cc(-c2nc3c4c(nc(OCC5(CN6C[C@H](C)O[C@@H](C)C6)CC5(F)F)nc4c2F)N2C[C@H]4CC[C@H](N4)[C@H]2CCO3)c1C(F)(F)F (single isomer, unassigned) [Example 26]	0.3 to 3 nM	3 to 1000 nM	–	–
Cc1cc(N)cc(-c2nc3c4c(nc(OCC5(CN6CC7CC7C6)CC5)nc4c2F)N2C[C@H]4CC[C@H](N4)[C@H]2CCO3)c1C(F)(F)F (stereo partly drawn) [Example 71, 3-((6aR,7S,10R)-13-((1-((3-azabicyclo[3.1.0]hexan-3-yl)methyl)cyclopropyl)methoxy)-1-fluoro-5,6,6a,7,8,9,10,11-octahydro-4-oxa-3,11a,12,14,15-pentaaza-7,10-methanocyclohepta[4,5]cycloocta [1,2,3-de]naphthalen-2-yl)-5-methyl-4-(trifluoromethyl)aniline]	< 0.3 nM	3 to 1000 nM	–	–
Nc1cc(Cl)c(C(F)(F)F)c(-c2nc3c4c(nc(OCC5(CN6CCC(=CF)CC6)CC5)nc4c2F)N2C[C@H]4CC[C@H](N4)[C@H]2CCO3)c1 [Example 156, 3-chloro-5-((6aR,7S,10R)-1-fluoro-13-((1-((4-(fluoromethylene)piperidin-1-yl)methyl)cyclopropyl)methoxy)-5,6,6a,7,8,9,10,11-octahydro-4-oxa-3,11a,12,14,15-pentaaza-7,10-methanocyclohepta[4,5]cycloocta [1,2,3-de]naphthalen-2-yl)-4-(trifluoromethyl)aniline]	< 0.3 nM	0.3 to 3 nM	–	–
Cc1cc(N)cc(-c2nc3c4c(nc(OCC5(CN6CCOC[C@H]6C)CC5)nc4c2F)N2C[C@H]4CC[C@H](N4)[C@H]2CCO3)c1C(F)(F)F [Example 163, 3-((6aR,7S,10R)-1-fluoro-13-((1-(((R)-3-methylmorpholino)methyl)cyclopropyl)methoxy)-5,6,6a,7,8,9,10,11-octahydro-4-oxa-3,11a,12,14,15-pentaaza-7,10-methanocyclohepta[4,5]cycloocta[1,2,3-de]naphthalen-2-yl)-5-methyl-4-(trifluoromethyl)aniline]	< 0.3 nM	3 to 1000 nM	–	–
Cc1cc(N)cc(-c2nc3c4c(nc(OCC5(C)CN(C)CCC5C(F)F)nc4c2F)N2C[C@H]4CC[C@H](N4)[C@H]2CCO3)c1C(F)(F)F (single isomer, unassigned) [Example 245]	< 0.3 nM	0.3 to 3 nM	–	–
Cc1cc(N)cc(-c2nc3c4c(nc(OCC5(CN6CCC7(C6)CC7(F)F)CC5)nc4c2F)N2C[C@H]4CC[C@H](N4)[C@H]2CCO3)c1C(F)(F)F (single isomer, unassigned) [Example 138]	< 0.3 nM	0.3 to 3 nM	–	–
Cc1cc(N)cc(-c2nc3c4c(nc(OCC5(CN6C[C@@H]7C[C@@H]7[C@H]6CO)CC5)nc4c2F)N2C[C@H]4CC[C@H](N4)[C@H]2CCO3)c1C(F)(F)F [Example 97, ((1S,2S,5R)-3-((1-((((6aR,7S,10R)-2-(5-amino-3-methyl-2-(trifluoromethyl)phenyl)-1-fluoro-5,6,6a,7,8,9,10,11-octahydro-4-oxa-3,11a,12,14,15-pentaaza-7,10-methanocyclohepta [4,5]cycloocta,[1,2,3-de]naphthalen-13-yl)oxy)methyl)cyclopropyl)methyl)-3-azabicyclo [3.1.0]hexan-2-yl) methanol]	< 0.3 nM	3 to 1000 nM	–	–
Cc1cc(N)cc(-c2nc3c4c(nc(OCC5(CN6CC=C(F)CC6)CC5)nc4c2F)N2C[C@H]4CC[C@H](N4)[C@H]2CCO3)c1C(F)(F)F [Example 178, 3-((6aR,7S,10R)-1-fluoro-13-((1-((4-fluoro-3,6-dihydropyridin-1(2H)-yl)methyl)cyclopropyl)methoxy)-5,6,6a,7,8,9,10,11-octahydro-4-oxa-3,11a,12,14,15-pentaaza-7,10-methanocyclohepta[4,5]cycloocta[1,2,3-de]naphthalen-2-yl)-5-methyl-4-(trifluoromethyl)aniline]	< 0.3 nM	3 to 1000 nM	–	–
[2H]C([2H])([2H])N1CCC(C(F)F)C(C)(C([2H])([2H])Oc2nc3c4c(nc(-c5cc(N)cc(C)c5C(F)(F)F)c(F)c4n2)OCC[C@@H]2[C@@H]4CC[C@H](CN32)N4)C1 (single isomer, unassigned) [Example 240]	0.3 to 3 nM	3 to 1000 nM	–	–
Cc1cc(N)cc(-c2nc3c4c(nc(OCC5(CN6CCC6)CC5(F)F)nc4c2F)N2C[C@H]4CC[C@H](N4)[C@H]2CCO3)c1C(F)(F)F (stereo partly drawn) [Example 19, 3-((6aR,7S,10R)-13-((1-(azetidin-1-ylmethyl)-2,2-difluorocyclopropyl)methoxy)-1-fluoro-5,6,6a,7,8,9,10,11-octahydro-4-oxa-3,11a,12,14,15-pentaaza-7,10-methanocyclohepta[4,5]cycloocta[1,2,3-de]naphthalen-2-yl)-5-methyl-4-(trifluoromethyl)aniline]	< 0.3 nM	3 to 1000 nM	–	–

Reference: patent US20260347373A1, “HETEROCYCLIC COMPOUNDS, COMPOSITIONS THEREOF, AND METHODS OF TREATMENT THEREWITH” (BeOne Medicines I GmbH, priority 2023, published 2026)
